Assay results taken from PubChem BioAssay (NCI).
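Interpolation was linear, between the two tested concentrations surrounding the appropriate level; five concentrations were tested over 48 hours in 96-well plates. The concentration for full growth arrest is given as TGI.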 Where a SMILES comes first, the peptide text is derived from it. [ ]: non-standard residue; d: D form. The star is where a group is joined. ξ: configuration not given here. NMeF = CN[CH](Cc1ccccc1)C(=O)O; ξNMe2Val = CC(C)C(C(=O)*)N(C)C; NMeV = CN[CH](C(=O)O)C(C)C; ξNMeV = CNC(C(=O)O)C(C)C; Boc = CC(C)(C)OC(=O)*; OBn = c1ccc(CO*)cc1; OtBu = CC(C)(C)O*

Columns and labels:
Test in all cases: inhibition of tumour cell growth, NCI panel, 48 h
[1] = test system: LXFL 529 NSCLC
[2] = test system: DMS 114 small cell lung
[3] = test system: DMS 273 small cell lung
[4] = test system: XF 498 CNS
[5] = test system: DLD-1 colon
[6] = test system: KM20L2 colon
[7] = test system: SNB-78 CNS
[8] = test system: RXF-631 renal

Compound	TGI [1]	TGI [2]	TGI [3]	TGI [4]	TGI [5]	TGI [6]	TGI [7]	TGI [8]
CC(C)C(C(=O)N(C)[C@H](C(=O)N1CCC[C@H]1C(=O)N(C)[C@@H](Cc1ccccc1)C(=O)OCc1ccccc1)C(C)C)N(C)C(=O)[C@@H](NC(=O)OC(C)(C)C)C(C)C (some centres not stated) (Boc-V[ξNMeV][NMeV]P[NMeF]-OBn)	> 100 µM	> 31.6 µM	> 31.6 µM	> 31.6 µM	> 31.6 µM	> 31.6 µM	> 31.6 µM	–
O=C1Nc2ccc(Cl)c(I)c2C1=O	30.5 µM	34.2 µM	30.8 µM	34.2 µM	31.4 µM	34.9 µM	–	–
CC(=O)OCC1OC(N=[N+]=[N-])C(OC(C)=O)C(OC(C)=O)C1OC1OC(COC(C)=O)C(OC(C)=O)C(OC(C)=O)C1OC(C)=O (configuration not stated)	> 100 µM	> 100 µM	> 100 µM	> 100 µM	–	> 100 µM	> 100 µM	> 100 µM
CSC(C1c2ccccc2N(C)c2[nH]c(=O)n(C)c(=O)c21)S(=O)(=O)c1ccc(C)cc1 (configuration not stated)	> 100 µM	> 100 µM	> 100 µM	> 100 µM	> 100 µM	–	> 100 µM	–
Brc1ccc(-c2cc3c(cc2C2SCCS2)OCO3)cc1	> 100 µM	> 100 µM	> 100 µM	> 100 µM	> 100 µM	> 100 µM	> 100 µM	–
COc1ccc(NC(=O)C(=O)Cc2ccc([N+](=O)[O-])c([N+](=O)[O-])c2CC(=O)C(=O)Nc2ccc(OC)cc2OC)c(OC)c1	> 100 µM	> 100 µM	> 100 µM	–	> 100 µM	> 100 µM	> 100 µM	> 100 µM
N#COc1ccc(Oc2ccc(OC#N)cc2)cc1	> 100 µM	92.7 µM	–	> 100 µM	> 100 µM	> 100 µM	> 100 µM	> 100 µM
CC(C)C(C(=O)N(C)C(Cc1ccccc1)C(=O)N(C)C(C(=O)N(C)C(C(=O)N1CCCC1C(=O)OC(C)(C)C)C(C)C)C(C)C)N(C)C (configuration not stated) (ξNMe2Val-[NMeF][NMeV][NMeV]P-OtBu; configuration not given here)	> 100 µM	> 100 µM	84.1 µM	86.1 µM	–	46.4 µM	–	–
CC12CCc3ccccc3C1=NNC(=O)C2 (configuration not stated)	> 100 µM	> 100 µM	> 100 µM	> 100 µM	> 100 µM	> 100 µM	> 100 µM	–
CCCCCCCCCCCC[N+]12CC[N+](C)(CC1)CC2	> 100 µM	44.6 µM	15.1 µM	80 µM	> 100 µM	85.9 µM	76 µM	–
COc1ccc([C@H]2CC3C(=O)N(c4ccc(OC)cc4)C(=O)C3c3[nH]c4ccccc4c32)cc1 (some centres not stated)	> 100 µM	> 100 µM	> 100 µM	95.9 µM	> 100 µM	> 100 µM	> 100 µM	–
COC(=O)C(CCC1(C)OCCO1)=[N+]=[N-]	> 100 µM	> 100 µM	> 100 µM	> 100 µM	> 100 µM	> 100 µM	> 100 µM	> 100 µM
CN(C)CCC[N+]1=Nc2cccc3cccc(c23)N1	> 100 µM	> 100 µM	59.5 µM	> 100 µM	35.8 µM	> 100 µM	> 100 µM	> 100 µM
COc1ccc(-c2oc3cc(O)c(OC)c(O)c3c(=O)c2O)cc1	> 100 µM	–	30 µM	> 100 µM	30.8 µM	> 100 µM	> 100 µM	> 100 µM
O=C(NC1=C(Cl)C(=O)c2ccccc2C1=O)C(=O)C(C(=O)c1ccc2ccccc2c1)C1OC(=O)c2ccccc21 (configuration not stated)	17.7 µM	15.1 µM	–	–	16.9 µM	18.6 µM	15.4 µM	–
Cc1ccc(NC(=O)C2C3CCC(O3)C2C(=O)O)cc1 (configuration not stated)	> 74.6 µM	> 59.8 µM	> 100 µM	> 77.8 µM	96.9 µM	> 57.8 µM	> 100 µM	> 100 µM
Cc1nn2c(c1C#N)NNc1c-2sc(=N)nnc1=O	> 100 µM	–	–	–	> 100 µM	> 100 µM	–	–
